PubChem BioAssay AID2060508 (Molecular Pharmacology Branch, DTP, NCI, 2025)

Test system: 454973-116-R2-J3-PDC spheroids, viability, % test/control
Assay: Anticancer human tumor 454973-116-R2-J3-PDC patient-derived pancreatic carcinoma cell line growth inhibition [GQUAD]
Details: second compound 10 µM; first compound 0.0316 µM; active compounds read low; spheroids with HUVEC and MSC
How it was run: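 Multi-cell-type spheroids of tumor cells with HUVEC and mesenchymal stem cells, treated with drug combinations. Concentrations descend in half-log steps from near clinical Cmax, or from 10 microM where Cmax is unknown; viability read-out.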
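Further: spheroids exposed to compounds for seven days; 100% = DMSO vehicle control viability.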

Question: With C=CC(=O)N1CCN(c2nc(=O)n(-c3c(C)ccnc3C(C)C)c3nc(-c4c(O)cccc4F)c(F)cc23)C(C)C1 (configuration not stated) + CN(C)c1ccc(Nc2c3ccc(NC(=O)CCN4CCCC4)cc3nc3cc(NC(=O)CCN4CCCC4)ccc23)cc1 as the compound, how does the viability, T/C read?
Answer: 83.4%

Question: With CC1COCCN1c1cc(C2(O)CC3CCC(C2)O3)c2cnn(-c3ccn[nH]3)c2n1 (configuration not stated) + CN(C)c1ccc(Nc2c3ccc(NC(=O)CCN4CCCC4)cc3nc3cc(NC(=O)CCN4CCCC4)ccc23)cc1 as the compound, how does the viability, T/C read?
Answer: 65.7%

Question: Which viability, T/C does the source give for Cc1cccc(N(C)C(=O)C2C(O)CCN2c2nc(C)cc(C(F)(F)F)c2C#N)c1 (configuration not stated) + CN(C)c1ccc(Nc2c3ccc(NC(=O)CCN4CCCC4)cc3nc3cc(NC(=O)CCN4CCCC4)ccc23)cc1 here?
Answer: 74%

Question: Cn1ncnc1[C@H]1c2n[nH]c(=O)c3cc(F)cc(c23)N[C@@H]1c1ccc(F)cc1 + CN(C)c1ccc(Nc2c3ccc(NC(=O)CCN4CCCC4)cc3nc3cc(NC(=O)CCN4CCCC4)ccc23)cc1 was tested. Which viability, T/C did it give?
Answer: 63.8%

Question: O=C(c1cc(Cc2n[nH]c(=O)c3ccccc23)ccc1F)N1CCN(C(=O)C2CC2)CC1 + CN(C)c1ccc(Nc2c3ccc(NC(=O)CCN4CCCC4)cc3nc3cc(NC(=O)CCN4CCCC4)ccc23)cc1 was tested. Which viability, T/C did it give?
Answer: 75.8%

Same assay, conditions: second compound 10 µM; first compound 0.0999 µM; active compounds read low; spheroids with HUVEC and MSC

Question: With Cn1ncnc1[C@H]1c2n[nH]c(=O)c3cc(F)cc(c23)N[C@@H]1c1ccc(F)cc1 + CN(C)c1ccc(Nc2c3ccc(NC(=O)CCN4CCCC4)cc3nc3cc(NC(=O)CCN4CCCC4)ccc23)cc1 as the compound, how does the viability, T/C read?
Answer: 57.8%

Same assay, conditions: second compound 10 µM; first compound 0.1 µM; active compounds read low; spheroids with HUVEC and MSC

Question: How did the viability, T/C turn out when C=CC(=O)N1CCN(c2nc(=O)n(-c3c(C)ccnc3C(C)C)c3nc(-c4c(O)cccc4F)c(F)cc23)C(C)C1 (configuration not stated) + CN(C)c1ccc(Nc2c3ccc(NC(=O)CCN4CCCC4)cc3nc3cc(NC(=O)CCN4CCCC4)ccc23)cc1 was run?
Answer: 77.9%

Question: How did the viability, T/C turn out when CC1COCCN1c1cc(C2(O)CC3CCC(C2)O3)c2cnn(-c3ccn[nH]3)c2n1 (configuration not stated) + CN(C)c1ccc(Nc2c3ccc(NC(=O)CCN4CCCC4)cc3nc3cc(NC(=O)CCN4CCCC4)ccc23)cc1 was run?
Answer: 53%

Question: With Cc1cccc(N(C)C(=O)C2C(O)CCN2c2nc(C)cc(C(F)(F)F)c2C#N)c1 (configuration not stated) + CN(C)c1ccc(Nc2c3ccc(NC(=O)CCN4CCCC4)cc3nc3cc(NC(=O)CCN4CCCC4)ccc23)cc1 as the compound, how does the viability, T/C read?
Answer: 74.7%

Question: O=C(c1cc(Cc2n[nH]c(=O)c3ccccc23)ccc1F)N1CCN(C(=O)C2CC2)CC1 + CN(C)c1ccc(Nc2c3ccc(NC(=O)CCN4CCCC4)cc3nc3cc(NC(=O)CCN4CCCC4)ccc23)cc1 was tested. Which viability, T/C did it give?
Answer: 75.2%

Same assay, conditions: second compound 10 µM; first compound 0.316 µM; active compounds read low; spheroids with HUVEC and MSC

Question: For C=CC(=O)N1CCN(c2nc(=O)n(-c3c(C)ccnc3C(C)C)c3nc(-c4c(O)cccc4F)c(F)cc23)C(C)C1 (configuration not stated) + CN(C)c1ccc(Nc2c3ccc(NC(=O)CCN4CCCC4)cc3nc3cc(NC(=O)CCN4CCCC4)ccc23)cc1, which viability, T/C is on record?
Answer: 82.4%

Question: CC1COCCN1c1cc(C2(O)CC3CCC(C2)O3)c2cnn(-c3ccn[nH]3)c2n1 (configuration not stated) + CN(C)c1ccc(Nc2c3ccc(NC(=O)CCN4CCCC4)cc3nc3cc(NC(=O)CCN4CCCC4)ccc23)cc1 was tested. Which viability, T/C did it give?
Answer: 30.4%

Question: For Cc1cccc(N(C)C(=O)C2C(O)CCN2c2nc(C)cc(C(F)(F)F)c2C#N)c1 (configuration not stated) + CN(C)c1ccc(Nc2c3ccc(NC(=O)CCN4CCCC4)cc3nc3cc(NC(=O)CCN4CCCC4)ccc23)cc1, which viability, T/C is on record?
Answer: 60.5%

Question: For Cn1ncnc1[C@H]1c2n[nH]c(=O)c3cc(F)cc(c23)N[C@@H]1c1ccc(F)cc1 + CN(C)c1ccc(Nc2c3ccc(NC(=O)CCN4CCCC4)cc3nc3cc(NC(=O)CCN4CCCC4)ccc23)cc1, which viability, T/C is on record?
Answer: 58.9%

Question: Which viability, T/C does the source give for O=C(c1cc(Cc2n[nH]c(=O)c3ccccc23)ccc1F)N1CCN(C(=O)C2CC2)CC1 + CN(C)c1ccc(Nc2c3ccc(NC(=O)CCN4CCCC4)cc3nc3cc(NC(=O)CCN4CCCC4)ccc23)cc1 here?
Answer: 67.9%

Same assay, conditions: second compound 10 µM; first compound 1 µM; active compounds read low; spheroids with HUVEC and MSC

Question: For C=CC(=O)N1CCN(c2nc(=O)n(-c3c(C)ccnc3C(C)C)c3nc(-c4c(O)cccc4F)c(F)cc23)C(C)C1 (configuration not stated) + CN(C)c1ccc(Nc2c3ccc(NC(=O)CCN4CCCC4)cc3nc3cc(NC(=O)CCN4CCCC4)ccc23)cc1, which viability, T/C is on record?
Answer: 68.5%

Question: CC1COCCN1c1cc(C2(O)CC3CCC(C2)O3)c2cnn(-c3ccn[nH]3)c2n1 (configuration not stated) + CN(C)c1ccc(Nc2c3ccc(NC(=O)CCN4CCCC4)cc3nc3cc(NC(=O)CCN4CCCC4)ccc23)cc1 was tested. Which viability, T/C did it give?
Answer: 24.4%

Question: With Cc1cccc(N(C)C(=O)C2C(O)CCN2c2nc(C)cc(C(F)(F)F)c2C#N)c1 (configuration not stated) + CN(C)c1ccc(Nc2c3ccc(NC(=O)CCN4CCCC4)cc3nc3cc(NC(=O)CCN4CCCC4)ccc23)cc1 as the compound, how does the viability, T/C read?
Answer: 72.4%

Question: Which viability, T/C does the source give for O=C(c1cc(Cc2n[nH]c(=O)c3ccccc23)ccc1F)N1CCN(C(=O)C2CC2)CC1 + CN(C)c1ccc(Nc2c3ccc(NC(=O)CCN4CCCC4)cc3nc3cc(NC(=O)CCN4CCCC4)ccc23)cc1 here?
Answer: 67.4%

Same assay, conditions: second compound 10 µM; first compound 3.16 µM; active compounds read low; spheroids with HUVEC and MSC

Question: C=CC(=O)N1CCN(c2nc(=O)n(-c3c(C)ccnc3C(C)C)c3nc(-c4c(O)cccc4F)c(F)cc23)C(C)C1 (configuration not stated) + CN(C)c1ccc(Nc2c3ccc(NC(=O)CCN4CCCC4)cc3nc3cc(NC(=O)CCN4CCCC4)ccc23)cc1 was tested. Which viability, T/C did it give?
Answer: 79%

Question: For CC1COCCN1c1cc(C2(O)CC3CCC(C2)O3)c2cnn(-c3ccn[nH]3)c2n1 (configuration not stated) + CN(C)c1ccc(Nc2c3ccc(NC(=O)CCN4CCCC4)cc3nc3cc(NC(=O)CCN4CCCC4)ccc23)cc1, which viability, T/C is on record?
Answer: 23%

Question: Which viability, T/C does the source give for Cc1cccc(N(C)C(=O)C2C(O)CCN2c2nc(C)cc(C(F)(F)F)c2C#N)c1 (configuration not stated) + CN(C)c1ccc(Nc2c3ccc(NC(=O)CCN4CCCC4)cc3nc3cc(NC(=O)CCN4CCCC4)ccc23)cc1 here?
Answer: 74.5%

Question: How did the viability, T/C turn out when O=C(c1cc(Cc2n[nH]c(=O)c3ccccc23)ccc1F)N1CCN(C(=O)C2CC2)CC1 + CN(C)c1ccc(Nc2c3ccc(NC(=O)CCN4CCCC4)cc3nc3cc(NC(=O)CCN4CCCC4)ccc23)cc1 was run?
Answer: 63.5%

Same assay, conditions: second compound 10 µM; first compound 10 µM; active compounds read low; spheroids with HUVEC and MSC

Question: For C=CC(=O)N1CCN(c2nc(=O)n(-c3c(C)ccnc3C(C)C)c3nc(-c4c(O)cccc4F)c(F)cc23)C(C)C1 (configuration not stated) + CN(C)c1ccc(Nc2c3ccc(NC(=O)CCN4CCCC4)cc3nc3cc(NC(=O)CCN4CCCC4)ccc23)cc1, which viability, T/C is on record?
Answer: 77.5%

Question: Which viability, T/C does the source give for CC1COCCN1c1cc(C2(O)CC3CCC(C2)O3)c2cnn(-c3ccn[nH]3)c2n1 (configuration not stated) + CN(C)c1ccc(Nc2c3ccc(NC(=O)CCN4CCCC4)cc3nc3cc(NC(=O)CCN4CCCC4)ccc23)cc1 here?
Answer: 11.2%

Question: Which viability, T/C does the source give for Cc1cccc(N(C)C(=O)C2C(O)CCN2c2nc(C)cc(C(F)(F)F)c2C#N)c1 (configuration not stated) + CN(C)c1ccc(Nc2c3ccc(NC(=O)CCN4CCCC4)cc3nc3cc(NC(=O)CCN4CCCC4)ccc23)cc1 here?
Answer: 65.1%

Question: For O=C(c1cc(Cc2n[nH]c(=O)c3ccccc23)ccc1F)N1CCN(C(=O)C2CC2)CC1 + CN(C)c1ccc(Nc2c3ccc(NC(=O)CCN4CCCC4)cc3nc3cc(NC(=O)CCN4CCCC4)ccc23)cc1, which viability, T/C is on record?
Answer: 51.7%
